From patent US4486415A, “Cyclic hexapeptide somatostatin analogs” (Merck & Co., Inc., priority 1983, dated 1984)
Square brackets hold non-standard residues; d marks the D form. Peptide text beside a SMILES is read from it. NMeF = CN[C@@H](Cc1ccccc1)C(=O)O; NMeK = CN[C@@H](CCCCN)C(=O)O; dNMeK = CN[C@H](CCCCN)C(=O)O

What was measured:
[1] = test system: portal vein glucagon; experiment: decrease of portal vein glucagon in anesthetized rats; assay type: in vivo, rat; conditions: multiples or fractions of the effect of somatostatin (=1), fiducial limits in parentheses, external jugular vein, portal blood after 5 minutes
Description: (§1) Analogs of somatostatin were compared to somatostatin in their ability to decrease the levels of portal vein glucagon and insulin in anesthetized rates. Male Sprague-Dawley rats (Charles River CD) weighing 160-200 g were anesthetized with urethane (150 mg/100 g of body weight; Aldrich). Saline or peptides were administered via the external jugular vein. After 5 minutes, the portal vein was exposed, and blood was collected via syringe containing 3 mg of EDTA and placed in chilled tubes containing 100 μl of Trasylol (FBA Pharmaceuticals) for subsequent hormone analysis. Plasma levels of glucagon were determined by the method of Faloona and Unger, Methods of Hormone Radioimmunoassay, Jaffe and Behrman (Eds), Academic Press, New York, Vol. II, pp. 257-527 (1976), utilizing glucagon antisera 30K obtained from R. Unger (Dallas, TX). Plasma levels of insulin were determined by a modification of the procedure of Herbert et al., J. Clin. Endocrinol. Metab., 25, 1375-1384 (1965).

[2] = test system: portal vein insulin; experiment: decrease of portal vein insulin in anesthetized rats; assay type: in vivo, rat; conditions: multiples or fractions of the effect of somatostatin (=1), fiducial limits in parentheses, external jugular vein, portal blood after 5 minutes
Description: as §1

[3] = test system: growth hormone; experiment: in vitro test for the inhibition of growth hormone release, cultured rat pituitary cells; assay type: cell-based; conditions: multiples or fractions of the effect of somatostatin (=1), fiducial limits in parentheses, 4 hours incubation
Description: The instant cyclic hexapeptide analogs of somatostatin are tested and compared with the effects of somatostatin in an in vitro test for the inhibition of growth hormone. The test is described as follows:
"Rat pituitaries were isolated according to the procedures of Vale and Grant "In vitro Pituitary Hormone Secretion Assay for Hypophysiotropic Substances" in Methods in Enzymology, Vol. XXXVII, eds. O'Malley, B.W. and Hardman, J.G. (Academic Press, Inc., New York) pp. 5-93 (1975).
After 4 days in culture, the cells were washed and incubated for 4 hours in Dulbecco-modified Eagle's medium in the presence or absence of graded doses of each analog or somatostatin. The medium was then collected for subsequent growth hormone determinatin by a double antibody radioimmunoassay for rat growth hormone."

[4] = test system: pentagastrin evoked gastric secretion; experiment: inhibition of pentagastrin evoked gastric secretion in the chronic fistula dog; assay type: in vivo; conditions: Dose 0.8 μg/ml./min., infusion 0-60 min., relative to placebo trial; for Gastric Secretion & Inhibition, Acid Concentration 0-30 / Gastric Secretion & Inhibition, Vol. 0-30: 0-30 min; for Gastric Secretion & Inhibition, Acid Concentration 30-60 / Gastric Secretion & Inhibition, Vol. 30-60: 30-60 min; for Gastric Secretion & Inhibition, Acid Concentration 60-90 / Gastric Secretion & Inhibition, Vol. 60-90: 60-90 min; for Gastric Secretion & Inhibition, Acid Concentration 90-120 / Gastric Secretion & Inhibition, Vol. 90-120: 90-120 min
Description: The effects of the instant cyclichexapeptide analogs of somatostatin are determined by the following procedure.
Compounds were tested for their ability to inhibit pentagastrin evoked gastric secretion in the chronic fistula dog. Female beagle dogs with a chronic gastric fistula were given pentagastrin (2.5 μg./kg./hour, i.v. from -60 to 120 min.) and gastric outputs were collected via the fistula cannula. Samples were analyzed at 30 minute intervals for volume (Ml.) and titratable acid (mEq/L) (Titration to pH 7 with 0.01N NaOH); total acid output (mEq) was calculated as the production of output volume and acid concentration. Test compounds were infused at a constant rate from 0 to 60 minutes. Data have been expressed as percent change of total acid output relative to a placebo trial in the same animals.

Compound | Glucagon Inhibition [1] | Insulin Inhibition [2] | Growth Hormone Release Inhibition [3] | Gastric Secretion & Inhibition, Acid Concentration 0-30 [4] [%] | Gastric Secretion & Inhibition, Vol. 0-30 [4] [%] | Gastric Secretion & Inhibition, Acid Concentration 30-60 [4] [%] | Gastric Secretion & Inhibition, Vol. 30-60 [4] [%] | Gastric Secretion & Inhibition, Acid Concentration 60-90 [4] [%] | Gastric Secretion & Inhibition, Vol. 60-90 [4] [%] | Gastric Secretion & Inhibition, Acid Concentration 90-120 [4] [%] | Gastric Secretion & Inhibition, Vol. 90-120 [4] [%]
C[C@@H](O)[C@@H]1NC(=O)[C@H](CCCCN)N(C)C(=O)[C@H](Cc2c[nH]c3ccccc23)NC(=O)[C@H](Cc2ccccc2)NC(=O)[C@@H]2CCCN2C(=O)[C@H](Cc2ccccc2)NC1=O [Cyclo-(Pro-Phe-L-Trp-N-Me-Lys-Thr-Phe)] (cyclo(FPFW[NMeK]T)) | 0.2 | 0.3(0.1,0.7) | 0.1(0.09,0.2) |  |  |  |  |  |  |  | 
C[C@@H](O)[C@@H]1NC(=O)[C@H](CCCCN)N(C)C(=O)[C@@H](Cc2c[nH]c3ccccc23)NC(=O)[C@H](Cc2ccccc2)NC(=O)[C@@H]2CCCN2C(=O)[C@H](Cc2ccccc2)NC1=O [Cyclo(D-Trp-N-Me-Lys-Thr-Phe-Pro-Phe)] (cyclo(FPF[dW][NMeK]T)) | Active | 0.5(0.1,1.8) | 1.6(0.7,3.4) | 9 | 78 | 49 | 82 | 43 | 61 | 32 | 60
C[C@@H](O)[C@@H]1NC(=O)[C@@H](CCCCN)N(C)C(=O)[C@H](Cc2c[nH]c3ccccc23)NC(=O)[C@H](Cc2ccccc2)NC(=O)[C@@H]2CCCN2C(=O)[C@H](Cc2ccccc2)NC1=O [Cyclo(Pro--Phe--L-Trp--D-N--Me--Lys--Thr--Phe)] (cyclo(FPFW[dNMeK]T)) |  | 0.07 | 0.05(0.04,0.07) |  |  |  |  |  |  |  | 
C[C@@H](O)[C@@H]1NC(=O)[C@H](CCCCN)NC(=O)[C@@H](Cc2c[nH]c3ccccc23)NC(=O)[C@H](Cc2ccccc2)NC(=O)[C@@H]2CCCN2C(=O)[C@H](Cc2ccccc2)N(C)C1=O [Cyclo(D-Trp-Lys-Thr-N-Me-Phe-Pro-Phe)] (cyclo(F[dW]KT[NMeF]P)) | 2.0 | 1.1(0.6,1.7) | 0.53(0.34,0.82) |  |  |  |  |  |  |  | 
C[C@@H](O)[C@@H]1NC(=O)[C@@H](CCCCN)N(C)C(=O)[C@@H](Cc2c[nH]c3ccccc23)NC(=O)[C@H](Cc2ccccc2)NC(=O)[C@@H]2CCCN2C(=O)[C@H](Cc2ccccc2)NC1=O [Cyclo-(Pro-Phe-D-Trp-N-Me-D-Lys-Thr-Phe)] (cyclo(FPF[dW][dNMeK]T)) | 0.4 | 0.4(0.01,1.9) | 1.5(1.2,1.9) | 44 | 82 | 51 | 89 | 6 | 49 | 0 | 60
